Reference: patent US10517926B2, “Oligopeptide having proinflammatory cytokine secretion-inhibiting activity” (Osaka University, priority 2015, dated 2019)

Legend:
[1] = test system: RANK knockdown RAW264.7 cells; assay: RANK dependency: cytokine secretion in RANK knockdown cells; format: cell-based, mouse; settings: for secretion of IL-6: FIG. 10; for secretion of TNFα: FIG. 11
Method: RAW264.7 cells were suspended in a DMEM medium (+10% FBS), seeded on a 24-well plate, and cultured at 37° C. at a CO2 concentration of 5%. To 100 μl of serum-free DMEM medium, 37.5 ng (final concentration: 5 nM) of siRNA against RANK (a double strand of the sequence represented by SEQ ID NO: 17 and the sequence represented by SEQ ID NO: 18, produced by GeneDesign) or 37.5 ng (final concentration: 5 nM) of control siRNA (a double strand of the sequence represented by SEQ ID NO: 19 and the sequence represented by SEQ ID NO: 20, produced by GeneDesign), and 3 μl of HiPerFect Transfection Reagent (QIAGEN) were added, and the resultant was allowed to stand at room temperature for 10 minutes. This was added to the RAW264.7 cell culture medium. After culture at 37° C. at a CO^2 concentration of 5% for 24 hours, the cells were collected. A protein extract was obtained from the cells by a standard method, and RANK in this extract was detected at a dilution concentration of 1/100 by the Western blotting method (anti-RANK antibody: anti-mRANK (Cat. No. AF692), produced by R&D Systems). […] FIG. 9 confirmed that RANK was knocked down by siRNA against RANK (comparison between lane 2 and lane 3).
MHP1 and LPS were made to act on RANK knockdown cells, as in Example 3, and the concentrations of IL-6 and TNFα in the medium were measured by the ELISA method. FIGS. 10 and 11 show the results.

[2] = test system: neuron-glia mixed culture; assay: TNFα secretion by LPS in neuron-glia mixed culture system; format: cell-based, mouse
Method: Neuronal tissue (a mixture of neurons and glial cells) was removed from a mouse fetus 21 days after fertilization (21st fetal day), and cultured in Neurobasal medium (+B-27, +5% HS) for 9 days. Then, the cells were divided into 3 groups (A to C groups), and subjected to the following treatments.
The cells were cultured for 24 hours after the medium was changed to a medium (Neurobasal A/N2 supplement) containing MHP1 (final concentration: 1, 10, 30, or 50 μg/ml). Then, LPS (final concentration: 10 μg/ml) was added to the medium, and the cells were further cultured for 24 hours. After culture, the concentration of TNFα in the medium was measured by the ELISA method.
The cells were cultured for 24 hours after the medium was changed to a medium (Neurobasal A/N2 supplement) containing MHP1 (final concentration: 30 or 50 μg/ml) and LPS (final concentration: 10 μg/ml). After culture, the concentration of TNFα in the medium was measured by the ELISA method.

NFκB (p65) = NFκB (p65) activation (TransAM NFkB p65 Kit); format: cell-based, mouse; settings: RAW264.7 cells; MHP1 100 μg/ml, 10 minutes; FIG. 12C
Method: It has recently been reported that the administration of RANKL protein to mice induces the activation of osteoclasts. Accordingly, the influence of the RANKL peptide on osteoclasts was examined. The specific examination procedures were as follows. MHP1 (final concentration: 100 μg/ml) or RANKL protein (final concentration: 10 ng/ml) was added to a medium (DMEM medium (+4% FBS)) in which RAW264.7 cells were cultured, and the cells were collected after 10 minutes and 3 days.
For the samples collected after 10 minutes, nuclear proteins of the cells were extracted using the Nuclear Extract Kit (Active Motif), and the degree of NFκB (p65) activation was measured by the TransAM NFkB p65 Kit (Active Motif). On the other hand, for the samples collected after 3 days, the mRNA expression levels of NFATc1 and ACP5 were analyzed by real-time RT-PCR.

THP1 cells = assay: Proinflammatory cytokine secretion inhibition, human macrophage cells; format: cell-based; settings: MHP6 10-100 μg/ml or MHP1 100 μg/ml, LPS 2 ng/ml, 24 hours, FIG. 14
Method: THP1 cells (human-derived macrophage cell line) were cultured in a DMEM medium (+4% FBS) containing MHP6 (human-derived; final concentration: 10, 30, 50, or 100 μg/ml) or MHP1 (mouse-derived; final concentration: 100 μg/ml), and LPS (final concentration: 2 ng/ml) for 24 hours by a standard method. After culture, the concentration of IL-6 in the medium was measured by the ELISA method.

[3] = test system: cerebral ischemia mice (C57BL6/J); assay: Necrosis after cerebral ischemia, intraventricular administration; format: in vivo, mouse
Method: A cerebral ischemic area was artificially developed in wild-type mice (C57BL6/J) using embolic suture. Specifically, nylon suture was inserted from the right external carotid artery into the intracranial internal carotid artery, and the right middle cerebral artery was temporarily occluded. The embolic suture was removed 40 minutes after the formation of the ischemic area, and the blood was reperfused. Four hours after the formation of the ischemic area, 2 μl of MHP1 solution (0.625 μg/2 μl, the solvent was artificial cerebrospinal fluid (aCSF)) or 2 μl of aCSF was administered by injection into the ventricle of the mice with a neurological severe score of 1 or 2. Separately, a group to which edaravone, which is a known brain-protecting agent, was administered was also produced (aCSF intraventricular administration+3 mg/kg of edaravone i.p., administered every 12 hours). The brain was removed 72 hours after the formation of the ischemic area, and a brain slice including left and right brain portions in positions of 1.4, 0.7, and 0 mm in the front and rear of the bregma was produced. The slice was stained with cresyl violet. The area of the […] was regarded as the cerebral infarct area (necrosis site), and the ratio of cerebral infarct area was determined by the following formula. […] Ratio of cerebral infarct area=([normal side brain area]−([cerebral infarct side total area]−[cerebral infarct area])/normal side brain area)×100
Furthermore, the ratio of F4/80-positive cells (activated macrophage/microglia) in the cerebral infarction hemisphere in a position of 0.7 mm from the bregma (/middle cerebral artery region), and the number of the cells were measured.

[4] = RANK knockdown cells (siRNA against RANK)
[5] = control siRNA-introduced RAW264.7 cells

LMVYVVKTSIKIPSSHNLMKGGSTKNWSGN (listed as Mus musculus) [MHP1]
secretion of IL-6 [1, 4]: not inhibited
secretion of TNFα [1, 4]: not inhibited
secretion of IL-6 [1, 5]: inhibited
secretion of TNFα [1, 5]: inhibited
increase in the amount of TNFα secretion by LPS ([2]; pretreatment (A group), MHP1 1, 10, 30 or 50 μg/ml 24 hours before LPS 10 μg/ml, FIG. 5): suppressed
increase in the amount of TNFα secretion by LPS ([2]; simultaneous treatment (C group), MHP1 30 or 50 μg/ml with LPS 10 μg/ml, 24 hours, FIG. 7): suppressed
NFκB (p65) activation (NFκB (p65)): slightly activated
proinflammatory cytokine (IL-6) secretion-inhibiting activity on human-derived macrophage cells (THP1 cells): exhibited proinflammatory cytokine secretion-inhibiting activity
necrosis occurring after cerebral ischemia (ratio of cerebral infarct area) ([3]; 0.625 μg/2 μl into the ventricle 4 hours after ischemia, brain at 72 hours, FIG. 15): could be inhibited
expression of activated macrophage/microglia (F4/80-positive cells) ([3]; cerebral infarction hemisphere, 0.7 mm from the bregma, FIG. 16): suppressed
degree of inhibition of necrosis compared with edaravone administration ([3]; one MHP1 administration vs edaravone 3 mg/kg i.p. every 12 hours, FIG. 15): higher than edaravone administration
